Test results: patent publication US20240132484A1, “BROAD SPECTRUM ANTIVIRAL COMPOUNDS TARGETING THE SKI COMPLEX” (priority 2020, published 2024)
“And” between values parts separate entries of the source, which are not always exact repeats. Equal values may be shown once. Read-outs that look alike come from different tables or passages of the source.

Columns and labels:
[1] = test system: SARS2; type: cell-based, SARS-CoV-2; details: for Percentage Inhibition Average 1 μM / Screening data (Relative infection to DMSO controls) Average 1 μM: SARS2, 1 μM; for Screening data (Relative infection to DMSO controls) Average 1 μM / Screening data (Relative infection to DMSO controls) Average 5 μM / Screening data (Relative infection to DMSO controls) Average 10 μM / Screening data (Relative infection to DMSO controls) Average 25 μM / Screening data (Relative infection to DMSO controls) Average 50 μM / Average (relative infection to DMSO over the 5 tested concentrations): 100=DMSO control; for Percentage Inhibition Average 5 μM / Screening data (Relative infection to DMSO controls) Average 5 μM: SARS2, 5 μM; for Percentage Inhibition Average 10 μM / Screening data (Relative infection to DMSO controls) Average 10 μM: SARS2, 10 μM; for Percentage Inhibition Average 25 μM / Screening data (Relative infection to DMSO controls) Average 25 μM: SARS2, 25 μM; for Percentage Inhibition Average 50 μM / Screening data (Relative infection to DMSO controls) Average 50 μM: SARS2, 50 μM; for Average (relative infection to DMSO over the 5 tested concentrations): SARS2, average over 1 to 50 uM; for Percentage Infection Relative to Appropriate DMSO Control with Avg Background Subtraction: Nunc Celigo plates; for Infection Data, Average, Mean: average of Exp 1-2 (SMW491, SMW492)
[2] = test system: cells (nuclei count); details: for Relative cell count to DMSO controls, Average 1 μM / Relative cell count to DMSO controls, Average 5 μM / Relative cell count to DMSO controls, Average 10 μM / Relative cell count to DMSO controls, Average 25 μM / Relative cell count to DMSO controls, Average 50 μM: toxicity data, 100=DMSO control; for Relative cell count to DMSO controls, Average (for correlation analysis): average value over the 5 tested concentrations (1 to 50 uM); for Toxicity Data, Average, Mean percentage relative to DMSO control: Average of Exp 1 (SMW491) and Exp 2 (SMW492)

In the case of `COc1ccc(C2NC(=O)NC(C)=C2C(=O)NC2CCCCCC2)cc1OC` (stereo not shown) [SILCS59], the “Percentage Inhibition Average 1 μM” value [1] is reported as 29.42%, the “Screening data (Relative infection to DMSO controls) Average 1 μM” value [1] is reported as 70.58 and the “Percentage Inhibition Average 5 μM” value [1] is reported as 33.20%. For the same molecule, the “Screening data (Relative infection to DMSO controls) Average 5 μM” value [1] was 66.80, the “Percentage Inhibition Average 10 μM” value [1] was 16.88% and the “Screening data (Relative infection to DMSO controls) Average 10 μM” value [1] was 83.12. The “Percentage Inhibition Average 25 μM” value [1] was −8.59%, the “Screening data (Relative infection to DMSO controls) Average 25 μM” value [1] was 108.59 and the “Percentage Inhibition Average 50 μM” value [1] was −28.37%. For the same molecule, the “Screening data (Relative infection to DMSO controls) Average 50 μM” value [1] was 128.37, the “Average (relative infection to DMSO over the 5 tested concentrations)” value [1] was 91.49 and the “Relative cell count to DMSO controls, Average 1 μM” value [2] was 115.37. The “Relative cell count to DMSO controls, Average 5 μM” value [2] was 119.78, the “Relative cell count to DMSO controls, Average 10 μM” value [2] was 116.3 and the “Relative cell count to DMSO controls, Average 25 μM” value [2] was 100.03. The “Relative cell count to DMSO controls, Average 50 μM” value [2] was 86.44 and the “Relative cell count to DMSO controls, Average (for correlation analysis)” value [2] was 107.58.

In the case of `CN(C)CCCN(Cc1cccs1)C(=O)c1cccs1` [SILCS40], the “SARS2 antiviral activity” value [1] is reported as “inactive”, the “Percentage Infection Relative to Appropriate DMSO Control with Avg Background Subtraction” value ([1]; Exp 1 (SMW491), 1 uM) is reported as 161.72% and 144.95% and the “Percentage Infection Relative to Appropriate DMSO Control with Avg Background Subtraction” value ([1]; Exp 1 (SMW491), 5 uM) is reported as 118.41% and 120.39%. The “Percentage Infection Relative to Appropriate DMSO Control with Avg Background Subtraction” value ([1]; Exp 1 (SMW491), 10 uM) was 125.55% and 160.68%, the “Percentage Infection Relative to Appropriate DMSO Control with Avg Background Subtraction” value ([1]; Exp 1 (SMW491), 25 uM) was 122.15% and 145.90% and the “Percentage Infection Relative to Appropriate DMSO Control with Avg Background Subtraction” value ([1]; Exp 1 (SMW491), 50 uM) was 46.53% and 56.51%. The “Percentage Infection Relative to Appropriate DMSO Control with Avg Background Subtraction” value ([1]; Exp 2 (SMW492), 1 uM) was 86.70% and 77.51%, the “Percentage Infection Relative to Appropriate DMSO Control with Avg Background Subtraction” value ([1]; Exp 2 (SMW492), 5 uM) was 88.04% and 68.60% and the “Percentage Infection Relative to Appropriate DMSO Control with Avg Background Subtraction” value ([1]; Exp 2 (SMW492), 10 uM) was 101.31% and 73.96%. For the same molecule, the “Percentage Infection Relative to Appropriate DMSO Control with Avg Background Subtraction” value ([1]; Exp 2 (SMW492), 25 uM) was 185.38% and 112.33%, the “Percentage Infection Relative to Appropriate DMSO Control with Avg Background Subtraction” value ([1]; Exp 2 (SMW492), 50 uM) was 61.71% and 43.46% and the “Percentage Inhibition Average 1 μM” value [1] was −17.72%. The “Screening data (Relative infection to DMSO controls) Average 1 μM” value [1] was 117.72, the “Percentage Inhibition Average 5 μM” value [1] was 1.14% and the “Screening data (Relative infection to DMSO controls) Average 5 μM” value [1] was 98.86. For the same molecule, the “Percentage Inhibition Average 10 μM” value [1] was −15.37%, the “Screening data (Relative infection to DMSO controls) Average 10 μM” value [1] was 115.37 and the “Percentage Inhibition Average 25 μM” value [1] was −41.44%. For the same molecule, the “Screening data (Relative infection to DMSO controls) Average 25 μM” value [1] was 141.44, the “Percentage Inhibition Average 50 μM” value [1] was 47.95% and the “Screening data (Relative infection to DMSO controls) Average 50 μM” value [1] was 52.05. The “Average (relative infection to DMSO over the 5 tested concentrations)” value [1] was 105.09, the “Infection Data, Average, Mean” value ([1]; n 4, 1 uM) was 117.72% and the “Infection Data, Average, Mean” value ([1]; n 4, 5 uM) was 98.86%. For the same molecule, the “Infection Data, Average, Mean” value ([1]; n 4, 10 uM) was 115.37%, the “Infection Data, Average, Mean” value ([1]; n 4, 25 uM) was 141.44% and the “Infection Data, Average, Mean” value ([1]; n 4, 50 uM) was 52.05%. The “Relative cell count to DMSO controls, Average 1 μM” value [2] was 86.49, the “Relative cell count to DMSO controls, Average 5 μM” value [2] was 96.33 and the “Relative cell count to DMSO controls, Average 10 μM” value [2] was 92.49. For the same molecule, the “Relative cell count to DMSO controls, Average 25 μM” value [2] was 83.93, the “Relative cell count to DMSO controls, Average 50 μM” value [2] was 117.52 and the “Toxicity Data, Average, Mean percentage relative to DMSO control” value ([2]; n=4, 1 uM) was 86.49%. The “Toxicity Data, Average, Mean percentage relative to DMSO control” value ([2]; n=4, 5 uM) was 96.33%, the “Toxicity Data, Average, Mean percentage relative to DMSO control” value ([2]; n=4, 10 uM) was 92.49% and the “Toxicity Data, Average, Mean percentage relative to DMSO control” value ([2]; n=4, 25 uM) was 83.93%. The “Toxicity Data, Average, Mean percentage relative to DMSO control” value ([2]; n=4, 50 uM) was 117.52% and the “Relative cell count to DMSO controls, Average (for correlation analysis)” value [2] was 95.35.
